Measured values: patent US20100197727A1, “Quinoline Derivatives as Antibacterial Agents” (priority 2005, published 2010)

Experiments:
[1] = tested on: methicilline resistant Staphylococcus aureus (MRSA) (a clinical isolate from the University of Antwerp); assay: Microtitre plate assay, IC90 determination; format: cell-based; conditions: 90% inhibitory concentration for bacterial growth
Experimental: (§1) The bacteria used in this study were grown overnight in flasks containing 100 ml Mueller-Hinton Broth (Becton Dickinson—cat. no. 275730) in sterile de-ionized water, with shaking, at 37° C. Stocks (0.5 ml/tube) were stored at −70° C. until use. Bacteria titrations were performed in microtiter plates and colony forming units (CFUs) were determined In general, an inoculum level of approximately 100 CFUs was used for susceptibility testing.
(§2) Flat-bottom, sterile 96-well plastic microtiter plates were filled with 180 μl of sterile deionized water, supplemented with 0.25% BSA. Subsequently, stock solutions (7.8× final test concentration) of compounds were added in 45 μl volumes in column 2. Serial five-fold dilutions (45 μl in 180 μl ) were made directly in the microtiter plates from column 2 to reach column 11. Untreated control samples with (column 1) and without (column 12) inoculum were included in each microtiter plate. Depending on the bacteria type, approximately 10 to 60 CFU per well of bacteria inoculum (100 TCID50), in a volume of 100 μl in 2.8× Mueller-Hinton broth medium, was added to the rows A to H, except column 12. The same volume of broth medium without inoculum was added to column 12 in row A to H. The cultures were incubated at 37° C. for 24 hours under a normal atmosphere (incubator with open air valve and continuous ventilation). At the end of incubation, one day after inoculation, the bacterial growth was quantitated fluorometrically. Therefore resazurin (0.6 mg/ml) was added in a volume of 20 μl to all wells 3 hours after inoculation, and the plates were re-incubated overnight. A change in colour from blue to pink indicated the growth of bacteria. The fluorescence was read in a computer-controlled fluorometer (Cytofluor Biosearch) at an excitation wavelength of 530 nm and an emission wavelength of 590 nm. The % growth inhibition achieved by the compounds was calculated according to standard methods. The IC90 (expressed in μg/ml) was defined as the 90% inhibitory concentration for bacterial growth.

[2] = tested on: Staphylococcus aureus (ATCC43300); assay: Microtitre plate assay, IC90 determination; format: cell-based; conditions: 90% inhibitory concentration for bacterial growth
Experimental: as §1, §2

[3] = tested on: Streptococcus pneumoniae (ATCC6305); assay: Microtitre plate assay, IC90 determination; format: cell-based; conditions: 90% inhibitory concentration for bacterial growth
Experimental: as §1, §2

[4] = tested on: Bacillus subtilis (ATCC43639); assay: Microtitre plate assay, IC90 determination; format: cell-based; conditions: 90% inhibitory concentration for bacterial growth
Experimental: as §1, §2

[5] = tested on: Listeria monocytogenes (ATCC49594); assay: Microtitre plate assay, IC90 determination; format: cell-based; conditions: 90% inhibitory concentration for bacterial growth
Experimental: as §1, §2

[6] = tested on: Streptococcus pyogens (ATCC8668); assay: Microtitre plate assay, IC90 determination; format: cell-based; conditions: 90% inhibitory concentration for bacterial growth
Experimental: as §1, §2

[7] = tested on: Staphylococcus aureus (ATCC29213); assay: Microtitre plate assay, IC90 determination; format: cell-based; conditions: 90% inhibitory concentration for bacterial growth
Experimental: as §1, §2

[8] = tested on: Enterococcus faecalis (ATCC29212); assay: Microtitre plate assay, IC90 determination; format: cell-based; conditions: 90% inhibitory concentration for bacterial growth
Experimental: as §1, §2

[9] = tested on: Escherichia coli (ATCC35218); assay: Microtitre plate assay, IC90 determination; format: cell-based; conditions: 90% inhibitory concentration for bacterial growth
Experimental: as §1, §2

[10] = tested on: Pseudomonas aeruginosa (ATCC27853); assay: Microtitre plate assay, IC90 determination; format: cell-based; conditions: 90% inhibitory concentration for bacterial growth
Experimental: as §1, §2

[11] = tested on: Enterococcus faecalis (ATCC14506); assay: Microtitre plate assay, IC90 determination; format: cell-based; conditions: 90% inhibitory concentration for bacterial growth
Experimental: as §1, §2

[12] = tested on: Escherichia coli (ATCC25922); assay: Microtitre plate assay, IC90 determination; format: cell-based; conditions: 90% inhibitory concentration for bacterial growth
Experimental: as §1, §2

[13] = tested on: Staphylococcus aureus (ATCC25923); assay: Microtitre plate assay, IC90 determination; format: cell-based; conditions: 90% inhibitory concentration for bacterial growth
Experimental: as §1, §2

[14] = tested on: Streptococcus mutans (ATCC33402); assay: Microtitre plate assay, IC90 determination; format: cell-based; conditions: 90% inhibitory concentration for bacterial growth
Experimental: as §1, §2

S. aureus = assay: Time kill assay; format: cell-based, Staphylococcus aureus; conditions: for bactericidal activity in time kill assay: observed at 1 and 10 times MIC90
From the text: (§3) Bactericidal or bacteriostatic activity of the compounds may be determined in a time kill assay using the broth microdilution method*. In a time kill assay on Staphylococcus aureus and methicillin resistant S. aureus (MRSA), the starting inoculum of S. aurues and MRSA is 10^6 CFU/ml in Muller Hinton broth. The antibacterial compounds are used at the concentration of 0.1 to 10 times the MIC (i.e. IC90 as determined in microtitre plate assay). Wells receiving no antibacterial agent constitute the culture growth control. The plates containing the microorganism and the test compounds are incubated at 37° C. After 0, 4, 24, and 48 hrs of incubation samples are removed for determination of viable counts by serial dilution (10^−1 to 10^−6) in sterile PBS and plating (200 μl) on Mueller Hinton agar. The plates are incubated at 37° C. for 24 hrs and the number of colonies are determined Killing curves can be constructed by plotting the log10 CFU per ml versus time. A bactericidal effect is commonly defined as 3-log10 decrease in number of CFU per ml as compared to untreated inoculum. The potential carryover effect of the drugs is removed by serial dilutions and counting the colonies at highest dilution used for plating. No carryover effect is observed at the dilution of 10^−2 used for plating. […] Antimicrob. Agents Chemother. 40, 839-845 (1996).
A time kill assay was performed with compound 102 and the control drug ciprofloxacin.

MRSA = assay: Time kill assay; format: cell-based, methicillin resistant S. aureus
From the text: as §3, with “(1996). […]” for “(1996).”

Row | SMILES | IC90 STA RMETH [1] [µg/mL] | IC90 STA 43300 [2] [µg/mL] | IC90 SPN 6305 [3] [µg/mL] | IC90 BSU 43639 [4] [µg/mL] | IC90 LMO 49594 [5] [µg/mL] | IC90 SPY 8668 [6] [µg/mL] | IC90 STA 29213 [7] [µg/mL] | IC90 EFA 29212 [8] [µg/mL] | IC90 ECO 35218 [9] [µg/mL] | IC90 PAE 27853 [10] [µg/mL] | IC90 EFA 14506 [11] [µg/mL] | IC90 ECO 25922 [12] [µg/mL] | IC90 STA 25923 [13] [µg/mL] | IC90 SMU 33402 [14] [µg/mL] | MIC (1× MIC used in time kill assay) (S. aureus; MIC i.e. IC90 as determined in microtitre plate assay) [µg/mL] | growth in time kill assay (S. aureus; at 0.1 times the MIC) | bactericidal activity in time kill assay (S. aureus) | bactericidal activity in time kill assay (MRSA)
1 | COc1nc2ccc(Br)cc2cc1C(c1ccccc1)C(O)(CC[N+](C)(C)C)c1cccc2ccccc12.[I-] (single isomer, unassigned) [Compound 103] | 2.2 | 2.8 | 3.5 | 2.8 | 0.5 | 2.8 | 2.0 | 2.8 | 17.5 | 13.9 | 2.8 | 11.1 | 2.2 | 2.8 |  |  |  | 
2 | COc1nc2ccc(Br)cc2cc1C(c1ccccc1)C(O)(CC[N+](C)(C)C)c1cccc2ccccc12.[I-] (single isomer, unassigned) [Compound 102] | 2.8 | 3.5 | 3.1 | 2.8 | 2.2 | 2.5 | 2.8 | 2.8 |  | 13.9 | 2.8 | 13.9 | 2.2 | 2.5 | 2.3 | followed the control in growth | bactericidal activity | 
3 | O=C(O)c1cn(C2CC2)c2cc(N3CCNCC3)c(F)cc2c1=O [ciprofloxacin, reference compound] |  |  |  |  |  |  |  |  |  |  |  |  |  |  |  |  | bactericidal activity | no bactericidal effect
